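In this assay, cells in 96-well plates receive the compound at five concentrations for 48 hours. Endpoints are linearly interpolated between the surrounding concentrations. Definition used: TGI = concentration required for complete inhibition of growth.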
Tests used:
Experiment in all cases: DTP human tumour cell line panel, 48 h
[1] = test system: A498 renal
[2] = test system: CCRF-CEM leukemia
[3] = test system: OVCAR-4 ovarian
[4] = test system: OVCAR-8 ovarian
[5] = test system: PC-3 prostate
[6] = test system: SF-268 CNS
[7] = test system: SK-OV-3 ovarian
[8] = test system: SNB-75 CNS
[9] = test system: U251 CNS
[10] = test system: SR leukemia

Cc1cc(C)c2c(=N)c3ccccc3n(CCCCCCO)c2n1
TGI [1]: 26.9 µM
TGI [2]: 9.64 µM
TGI [3]: 9.85 µM
TGI [4]: 5.49 µM
TGI [5]: 11.9 µM
TGI [6]: 13.9 µM
TGI [7]: 18.5 µM
TGI [8]: 5.78 µM
TGI [9]: 13.8 µM

CCOP(=O)(OCC)C1(O)CC(n2cc(C)c(=O)[nH]c2=O)OC1CO (stereo not drawn)
TGI [1]: > 100 µM
TGI [3]: > 100 µM
TGI [4]: > 100 µM
TGI [5]: > 100 µM
TGI [6]: > 100 µM
TGI [7]: > 100 µM
TGI [8]: > 100 µM
TGI [10]: > 100 µM
TGI [9]: > 100 µM

COc1cc(C(c2cccc3ccccc23)N2C(=O)CCC2C(=O)NCc2ccccc2)cc(OC)c1OC (stereo not drawn)
TGI [1]: > 100 µM
TGI [2]: > 100 µM
TGI [3]: > 100 µM
TGI [4]: > 100 µM
TGI [6]: > 100 µM
TGI [7]: > 100 µM
TGI [10]: > 100 µM
TGI [9]: > 100 µM

N#CC1(c2ccccc2)CCN(C2(c3ccccc3)CCCCC2)CC1
TGI [2]: > 100 µM
TGI [3]: > 100 µM
TGI [4]: > 100 µM
TGI [5]: > 100 µM
TGI [6]: > 100 µM
TGI [7]: > 100 µM
TGI [8]: > 100 µM
TGI [10]: > 100 µM
TGI [9]: > 100 µM

O=C1c2ccccc2-c2nc(-c3ccccc3)cc3c2c1nc1ccccc13
TGI [2]: 28.2 µM
TGI [3]: > 100 µM
TGI [4]: 66.8 µM
TGI [5]: 32.3 µM
TGI [6]: 65.7 µM
TGI [7]: 55.2 µM
TGI [10]: 11.9 µM
TGI [9]: 39.6 µM

C/C=C/[C@H]1O[C@@](O)([C@@H](C)[C@H](O)[C@H](C)[C@H]2OC(=O)/C(OC)=C/C(C)=C/[C@@H](C)[C@@H](O)[C@@H](CC)[C@@H](O)[C@H](C)C/C(C)=C/C=C/[C@@H]2OC)C[C@H](OC2CC(O)C(OC(N)=O)C(C)O2)[C@@H]1C (stereo partly drawn)
TGI [1]: 33.1 µM
TGI [2]: 0.723 µM
TGI [3]: 20.8 µM
TGI [4]: 21.2 µM
TGI [5]: 15.1 µM
TGI [6]: 25 µM
TGI [7]: 25.4 µM
TGI [8]: 21.9 µM
TGI [9]: 17.4 µM

COc1cc(/C=C2\Cc3cc(OC)c(OC)cc3C2=O)cc(OC)c1
TGI [1]: > 100 µM
TGI [2]: > 100 µM
TGI [3]: > 88.7 µM
TGI [4]: > 67.5 µM
TGI [5]: > 100 µM
TGI [6]: > 100 µM
TGI [7]: > 84.9 µM
TGI [8]: > 100 µM
TGI [9]: > 100 µM

CCC(=O)NC(OCC1(CC)COC1)(C(F)(F)F)C(F)(F)F
TGI [1]: > 100 µM
TGI [2]: > 100 µM
TGI [6]: > 100 µM
TGI [7]: > 100 µM
TGI [8]: > 100 µM
TGI [10]: > 100 µM
TGI [9]: > 100 µM

CC(=O)Nc1ccc(C(=O)NN2C(=O)C(Cl)C2c2ccc(O)cc2)cc1 (stereo not drawn)
TGI [1]: > 100 µM
TGI [2]: > 100 µM
TGI [3]: > 100 µM
TGI [4]: > 100 µM
TGI [6]: > 100 µM
TGI [7]: > 100 µM
TGI [8]: > 100 µM
TGI [9]: > 100 µM

OC(CCN1CCN(CCOC(c2ccccc2)c2ccccc2)CC1)c1ccc(Br)cc1 (stereo not drawn)
TGI [1]: 22 µM
TGI [2]: 45.3 µM
TGI [3]: 38.6 µM
TGI [4]: 19.9 µM
TGI [5]: 23 µM
TGI [6]: 30.3 µM
TGI [7]: 27 µM
TGI [8]: 27.5 µM
TGI [9]: 25.1 µM

CN(/N=N/c1nc[nH]c1C(N)=O)C1CCCCC1
TGI [1]: > 100 µM
TGI [2]: > 100 µM
TGI [3]: > 100 µM
TGI [4]: > 100 µM
TGI [6]: > 100 µM
TGI [7]: > 100 µM
TGI [8]: > 100 µM
TGI [10]: > 100 µM
TGI [9]: > 100 µM

C=CC(C)(C)c1cc([C@@H]2COc3cc(O)ccc3C2=O)c(O)c(O)c1OC
TGI [2]: > 100 µM
TGI [3]: 34.2 µM
TGI [4]: 30.9 µM
TGI [5]: 34.7 µM
TGI [6]: 37.4 µM
TGI [7]: 61 µM
TGI [8]: 56.6 µM
TGI [10]: > 100 µM
TGI [9]: 40.6 µM

O/N=C1/C2CC3CC1(c1ccccc1)CC(/C3=N/O)/C2=N\O (stereo not drawn)
TGI [1]: > 100 µM
TGI [2]: > 100 µM
TGI [3]: > 100 µM
TGI [4]: > 100 µM
TGI [5]: > 100 µM
TGI [7]: > 100 µM
TGI [8]: > 100 µM
TGI [10]: > 100 µM
TGI [9]: > 100 µM

CCNc1ncnc2c1nnn2CC
TGI [1]: > 100 µM
TGI [2]: > 100 µM
TGI [3]: > 100 µM
TGI [4]: > 100 µM
TGI [5]: > 100 µM
TGI [7]: > 100 µM
TGI [8]: > 100 µM
TGI [9]: > 100 µM

O=S(=O)(O)c1cc(O)c2c(O)c(N=Nc3cccc4ccccc34)c(S(=O)(=O)O)cc2c1
TGI [1]: > 100 µM
TGI [3]: > 100 µM
TGI [4]: > 100 µM
TGI [5]: > 100 µM
TGI [6]: > 100 µM
TGI [7]: > 100 µM
TGI [8]: > 100 µM
TGI [10]: > 100 µM
TGI [9]: > 100 µM

C#CCSc1nc(N)c2ncn(C3OC(COP(=O)(O)O)C(O)C3O)c2n1 (stereo not drawn)
TGI [1]: > 239 µM
TGI [2]: > 239 µM
TGI [3]: > 239 µM
TGI [4]: > 239 µM
TGI [6]: > 239 µM
TGI [7]: > 239 µM
TGI [8]: > 239 µM
TGI [10]: > 239 µM

C/C(=C\Cc1cc(O)ccc1O)CCc1c(C)c(O)c(O)c(C=O)c1C
TGI [1]: > 100 µM
TGI [2]: 9.6 µM
TGI [3]: > 100 µM
TGI [4]: 47 µM
TGI [6]: 68.5 µM
TGI [7]: 95.7 µM
TGI [8]: > 100 µM
TGI [10]: 51 µM
TGI [9]: 59.6 µM

N#Cc1c(Nc2nc3ccccc3s2)c2ccccc2n2c1nc1ccccc12
TGI [1]: > 100 µM
TGI [3]: > 100 µM
TGI [4]: > 100 µM
TGI [5]: > 100 µM
TGI [6]: > 100 µM
TGI [8]: 81 µM
TGI [10]: > 100 µM
TGI [9]: > 100 µM

COc1cc2c(cc1C)NC(=O)/C2=C\c1ccncc1
TGI [2]: > 100 µM
TGI [3]: > 100 µM
TGI [4]: 5.92 µM
TGI [5]: > 100 µM
TGI [6]: 56.9 µM
TGI [7]: 13.7 µM
TGI [8]: 33.7 µM
TGI [10]: 8.04 µM
TGI [9]: 18.6 µM

COc1cc(/C=N\NC(=O)C[N+](C)(C)C)cc(OC)c1OC
TGI [2]: > 10 µM
TGI [3]: > 10 µM
TGI [4]: > 10 µM
TGI [5]: > 10 µM
TGI [6]: > 10 µM
TGI [7]: > 10 µM
TGI [8]: > 10 µM
TGI [10]: > 10 µM
TGI [9]: > 10 µM

S=C(N/N=C\c1ccccn1)N(Cc1ccccn1)Cc1ccccn1
TGI [2]: > 100 µM
TGI [3]: 18.7 µM
TGI [4]: 12.7 µM
TGI [5]: 32.9 µM
TGI [6]: 30.9 µM
TGI [7]: 17.9 µM
TGI [8]: 20.2 µM
TGI [10]: > 39 µM
TGI [9]: > 40 µM

N#CC12C(=O)N3C(=NC(c4ccccc4)NC3c3ccccc3)C1(C#N)C(c1ccccc1)NC1=C2CCCC1 (stereo not drawn)
TGI [1]: > 100 µM
TGI [2]: 77.8 µM
TGI [3]: > 100 µM
TGI [4]: > 100 µM
TGI [5]: > 100 µM
TGI [6]: > 100 µM
TGI [7]: > 100 µM
TGI [8]: > 100 µM
TGI [9]: > 100 µM

Cc1cc(S(=O)(=O)Nc2nc3ccccc3n2-c2ccccc2)c(S)cc1Cl
TGI [2]: > 100 µM
TGI [3]: > 100 µM
TGI [4]: > 100 µM
TGI [5]: > 100 µM
TGI [6]: > 100 µM
TGI [8]: > 100 µM
TGI [10]: > 100 µM
TGI [9]: > 100 µM

From PubChem BioAssay (NCI)
